Assay results as given in ChEMBL document CHEMBL1135369, “Solid-phase synthesis of new saphenamycin analogues with antimicrobial activity” (2002).
In brackets after ≈: the same amount, converted by molar mass. Activity calls are given as the source filed them. The rule behind the calls is not given here.

Key:
Bacillus subtilis [1] = test: Effect on Bacillus subtilis in plate diffusion test; No growth inhibition; assay type: functional, organism-based
Bacillus subtilis [2] = test: Effect on Bacillus subtilis in plate diffusion test; ++ indicates Srong well defined clearance zone; assay type: functional, organism-based
Bacillus subtilis [3] = test: Minimum inhibitory concentration against Bacillus subtilis; assay type: functional
Bacillus subtilis [4] = test: Effect on Bacillus subtilis in plate diffusion test; + indicates clearance zones; assay type: functional, organism-based

Structure (SMILES) | MIC (Bacillus subtilis [3]) | Activity (Bacillus subtilis [1]) | Activity (Bacillus subtilis [2]) | Activity (Bacillus subtilis [4])
Cc1ccc(C(=O)OC(C)c2cccc3nc4c(C(=O)O)cccc4nc23)c(OCc2ccccc2)c1 (configuration not stated) |  | No growth inhibition |  | 
CC(OC(=O)c1cccc(Cl)c1)c1cccc2nc3c(C(=O)OC(C)c4cccc5nc6c(C(=O)O)cccc6nc45)cccc3nc12 (configuration not stated) | 0.72 µg/mL (≈ 1.1 µM) |  | Srong well defined clearance zone | 
C[S+](C)[O-] |  | inactive |  | 
Cc1cccc(C(=O)OC(C)c2cccc3nc4c(C(=O)O)cccc4nc23)c1OCc1ccccc1 (configuration not stated) | 3.73 µg/mL (≈ 7.57 µM) |  |  | clearance zones
CC(OC(=O)c1c(F)cccc1F)c1cccc2nc3c(C(=O)O)cccc3nc12 (configuration not stated) |  | No growth inhibition |  | 
CC(OC(=O)c1cccc(F)c1)c1cccc2nc3c(C(=O)O)cccc3nc12 (configuration not stated) |  | No growth inhibition |  | 
CC(OC(=O)c1ccccc1F)c1cccc2nc3c(C(=O)O)cccc3nc12 (configuration not stated) |  | No growth inhibition |  | 
Cc1ccc(OCc2ccccc2)c(C(=O)OC(C)c2cccc3nc4c(C(=O)O)cccc4nc23)c1 (configuration not stated) |  | No growth inhibition |  | 

Further lines, with some results ahead:

MIC (Bacillus subtilis [3]) | Structure (SMILES) | Activity (Bacillus subtilis [1]) | Activity (Bacillus subtilis [2]) | Activity (Bacillus subtilis [4])
2.1 µg/mL (≈ 4.41 µM) | CC(OC(=O)c1c(Cl)cc(Cl)cc1Cl)c1cccc2nc3c(C(=O)O)cccc3nc12 (configuration not stated) |  | Srong well defined clearance zone | 
3.93 µg/mL (≈ 10.1 µM) | CC(OC(=O)c1ccc(F)cc1)c1cccc2nc3c(C(=O)O)cccc3nc12 (configuration not stated) |  |  | clearance zones
2.49 µg/mL (≈ 5.97 µM) | CC(OC(=O)c1ccccc1[N+](=O)[O-])c1cccc2nc3c(C(=O)O)cccc3nc12 (configuration not stated) |  |  | clearance zones
3.35 µg/mL (≈ 8.23 µM) | CC(OC(=O)c1ccccc1Cl)c1cccc2nc3c(C(=O)O)cccc3nc12 (configuration not stated) |  |  | clearance zones
2.71 µg/mL (≈ 6.14 µM) | CC(OC(=O)c1c(Cl)cccc1Cl)c1cccc2nc3c(C(=O)O)cccc3nc12 (configuration not stated) |  |  | clearance zones
0.07 µg/mL (≈ 0.172 µM) | CC(OC(=O)c1cccc(Cl)c1)c1cccc2nc3c(C(=O)O)cccc3nc12 (configuration not stated) |  | Srong well defined clearance zone | 
